# Measurements reported in patent US5488049A, “Method of treating learning and memory disorders using benzothiadiazide derivatives as nootropic agents” (FIDIA - Georgetown Institute for the Neuro-Sciences, priority 1993, dated 1996).
# Entries after “also recorded” stand apart in the source; their conditions may differ. Like-named read-outs stand apart in the source and are kept apart here.
# What was measured:
# rats [1] = test: Water maze: drug action on alprazolam-disrupted learning behavior in rats; type: in vivo, rat; details: for antagonism of alprazolam amnesic effect: doses equimolar to IDRA 21 / (+) IDRA 21
# Description: Rats (male 250 g b.w.) were trained two days, once a day, in maze A (See insert A). […] Rats were exposed to a new maze configuration (Maze B) in 4 successive trials 15, 30, 45, and 60 min after the i.p. injections.
# (§1) The water maze apparatus was adapted from Kant et al., (16), and consists of three concentric squares placed inside a 5 ft plastic pool (FIG. 6). The walls of the maze are 50 cm in height and are constructed from black opaque plastic to allow for tracking of the animal with an overhead camera. The alleys between the walls are 16 cm wide. In the center of each wall there is a removable doorway. The opening of doorways allows for the construction of mazes with an increasing number of potential error possibilities. (See diagram for Maze A and Maze B, FIG. 6). The maze is located in a room 10'×15' at constant temperature (18° C.) adjacent to the vivarium. The room is illuminated with overhead lights which also serve as spatial cues. Additional spatial cues are provided by the position of the investigator and a number of small white x's placed within specific locations upon the walls of the maze. The maze is filled with water (18°)C. to a depth of 25 cm.
# (§2) Seven days prior to drug studies, rats were tested in Maze A (forced maze) on two consecutive days. Pretesting with the "forced" maze enabled the assessment of the animals' general motor, sensory and motivational abilities, and facilitated the exclusion of those animals unable to meet pretesting criteria. Performance was assessed by determining either swim time, errors committed, or path length measured with a computerized recording device. Errors are defined as whole body entry into alleys not leading directly to the exit platform (i.e., shaded portions in FIG. 6). Rats were excluded from the study if their swim path length and/or number of errors were two standard deviations above the mean […] of the entire group. During the first two trials, the rats were placed into the center of the maze and given a maximum of 180 secs to find the "exit platform" located at the "finish" (FIG. 6). The time required, the number of errors, and the path length were recorded for each trial. […] Rats meeting the criteria were randomly divided into groups. On the day of the experiment, a single trial was run (Maze A) in order to establish a baseline of performance. Following drug administration, the rats were again tested once on Maze A to establish a baseline of post-treatment performance. Following an additional interatrial interval of 30 min., the rats were tested on Maze B.
# In these experiments, rats were trained in Maze B 15, 30, 45 and 60 min. after drug injection.
# rats [2] = test: as above; type: in vivo, rat; details: oral 5 mg/kg
# [3] = tested on: AMPA receptors located on CAl pyramidal neuronal membranes; test: Slow bath perfusion, whole-cell: potentiation of glutamate-elicited current (with MK-801) in CAl pyramidal neurons of hippocampal slices; type: cell-based, rat
# Description: (§3) Young rats (12-16 days old) were decapitated and the brains quickly removed and placed in ice-cold Ringer solution. Thin slices of hippocampus (250 μm) were then cut with a vibratome slicer (Lancer, St. Louis, Mo.) and kept in Ringer solution at 37° C. until use. The experiments were carried out at room temperature with the slice totally submerged in a 1 ml volume recording chamber and under continuous perfusion with Ringer solution at a rate of 6 ml/min using an upright Hoffman modulation contrast microscope (Carl Zeiss, Germany) equipped with a 40×water immersion objective.
# (§4) Media and drug application. The external Ringer solution contained (in mM): NaCl 120; KCl 3.1; CaCl2 2; MgCl2 1; KH2 PO4 1; NaHCO3 26; glucose 2.7; and it was continuously bubbled with 95% O2 and 5% CO2. Patch pipettes were filled with a solution containing (in mM): K-gluconate 140; MgCl2 1; ATP.Mg 2; EGTA 0.5; HEPES-KOH 10, pH 7.2. All the drugs under investigation were applied through the recording chamber perfusion system via parallel inputs having a common entry into the chamber. Agonist application was attained using two different systems that allowed a slow or a rapid solution change. Slow solution changes were used during recordings in whole-cell configuration and were obtained by exchanging the solution of the recording chamber within a few seconds. Fast solution changes were obtained with the use of the Y-shaped tubing method that allows complete exchange of solution in less than 10 ms, and is described in detail by Murase et al. (1989).
# IDRA compounds (see above for structures) were first dissolved in 50 μl of DMSO, then […] of 1N NaOH and water (sufficient to reach a volume of 1 ml and a concentration of 10 mM). The final concentration was reached diluting the stock solution with Ringer solution.
# (§5) Ionic currents in whole-cell configuration and outside-out excised membrane patches were monitored using the patch clamp technique (15).
# The action diazoxide and the IDRA analogues were tested on the desensitization of AMPA receptors located on CAl pyramidal neuronal membranes in rat hippocampal slices. In order to evaluate whether the compounds under study increase the intensity of currents generated by the activation of non-NMDA receptors, these receptors were activated with glutamate in the presence of 5 μM MK-801 to block completely the ionic current elicited by glutamate acting on the NMDA receptor channels present in CAl pyramidal neurons. Three distinct methods of drug application were employed: 1) slow bath perfusion of agonist and drugs while recording in whole-cell mode (onset 30s); ii) fast application to outside-out patches of a fixed concentration of agonist with a double barrel pipette (onset<1 ms) in the presence and the absence of drugs; iii) fast perfusion (onset<6 ms) of increasing concentrations of agonist and drugs applied with the Y-tubing device to outside-out patches excised from neurons in brain slices and to voltage-clamped neurons in primary culture.
# . The most efficacious (1 mM) derivative was IDRA21, which elicited a potentiation of 797±220% (n=4 cells), followed by IDRA 20 with a potentiation of 292±100% (n=4 cells) (FIG. 2). […]
# animals and humans = details: refs 1-3 (NMDA antagonists); refs 7-9 (aniracetam); cited from earlier work
# AMPA receptor [4] = test: Fast application with double barrel pipette: AMPA receptor desensitization in outside-out patches from CAl hippocampal pyramidal neurons; type: cell-based, rat; details: 5 μM; 1 mM glutamate with 5 μM MK-801
# Description: as §3, §4
# Briefly, a polyethylene tubing (1 mm i.d.) is bent in a U-shaped, and another fine polyethylene tubing (50 μi.d.) and 10 mm length) is inserted into a small hole in the U-tubing making the tip of the Y-tubing. Solutions are fed to the Y-tubing by gravity, and negative pressure facilitates exchange of the solution. The tip of the Y-tubing is positioned 100 μm from the cell investigated, and upon opening and closing of a valve that controls the negative pressure, it was possible to respectively change rapidly and apply a number of different test solutions. This method was used to apply agonists to excised outside-out membrane patches. More rapid drug applications were used to apply agonists to excised outside-out membrane patches, and were obtained through a double-barrelled pipette positioned close to the recording pipette containing the membrane patch. […] The agonist was applied for a period of 150 ms and the time necessary for a complete exchange of the solution was less than 1 ms as measured at the opening of a patch pipette containing different dilutions of the drugs under study. […]
# Ionic currents in whole-cell configuration and outside-out excised membrane patches were monitored using the patch clamp technique (15). […]
# [5] = tested on: kainate-activated current; test: Selectivity: ionic current elicited by 20 μM kainate; type: cell-based, rat; details: for effect on kainate-activated current: 1 mM compound, 20 μM kainate; for effect on kainate responses at doses that decreased AMPA desensitization: all doses that decrease/inhibit AMPA desensitization
# Description: as §3, §4, §5
# rats [6] = test: Water maze: drug action on learning and retention in rats; type: in vivo, rat; details: IDRA 21 15 mg/kg
# Description: Rats (male, 250 g) were trained once a day in maze A (See FIG. 8B forced maze) for 2 consecutive days. The day of the experiment, after a first exposure to maze A, IDRA 21 (15 mg/kg) Aniracetam (500 mg/kg) or vehicle (cont) were administered per oral gavage and 30 min later the animals were exposed once again to Maze A. After 30 min of interatrial rest, rats were exposed to Maze B (see FIG. 8C open maze).
# as §1, §2
# AMPA receptor [7] = details: cited from earlier work
# [8] = tested on: EPSCs elicited in CAl pyramidal neurons; test: Excitatory postsynaptic currents (EPSCs) in CAl pyramidal neurons in hippocampal slices on stimulation of Schaffer collateral afferents; type: cell-based, rat; details: in vitro; compared with (+) IDRA 21
# Description: as §3, §5
# Traces were filtered at 3 KHz (-3 dB, 8-pole, lowpass Bessel filter, Frequency Devices), and stored in an LSI 11/73 computer (INDEC System, Sunnyvale, Calif.) after digitization (10 KHz) with a Data Translation analog to digital converter. Decay time constants of EPSC and glutamate-activated currents were determined from exponential fitting with the 11/73 system by using an entirely automated least-squares procedures (see Vicini and Schuetze, 1985, for further details). This method uses a Simplex algorithm (Caceci and Cacheris, 1984) to fit the data to either a single or double exponential equation of the form I(t)=If exp(-t/tauf)+Is exp(-t/taus), where If and Is are the amplitudes of the sIPSC fast and slow components, and tauf and taus are their respective decay time constants. Peak amplitudes were measured at the absolute maximum of the currents, taking into account the noise of the baseline and noise around the peak. Rise times were measured as the time elapsed from 20 to 80% of the peak amplitude of the response.
# The action of nootropic drugs on the excitatory postsynaptic currents (EPSCs) elicited in CAl pyramidal neurons in hippocampal slices was investigated by stimulation of the Schaffer collateral afferents.
compound,measurement,setting,value
"CC1Nc2ccc(Cl)cc2S(=O)(=O)N1 (single isomer, unassigned; (-)) [(-) IDRA 21]",biological activity of enantiomers (summary),rats [1]; summary statement,inactive
same,prevention of alprazolam-induced amnesia (enantiomers),rats [2],inactive
"CC1Nc2cc(Cl)ccc2S(=O)(=O)N1 (stereo not shown) [IDRA 20, 6-chloro-3-methyl-3,4-dihydro-2H 1,2,4-benzothiadiazine S-S dioxide]",potentiation of glutamate-elicited current,"[3]; 1 mM compound, 50 μM glutamate, 5 μM MK-801, whole-cell, slow perfusion",292±100%
"O=S1(=O)NC(C2CC3C=CC2C3)Nc2ccc(Cl)cc21 (stereo not shown) [IDRA 23, 6-chloro-3-bicyclo[2.2.1]-hept-2-ene-3,4-dihydro-2H 1,2,4-benzothiadiazine S-S dioxide]","efficacy compared with diazoxide (potentiation of glutamate current), in words","[3]; 1 mM, 50 μM glutamate",either equally or less efficacious than diazoxide
C[C@]12N[C@H](Cc3ccccc31)c1ccccc12 [MK-801],effect on learning and memory (background),animals and humans,"produce profound alterations in learning, disrupt memory consolidation and retrieval in animals and man"
"NS(=O)(=O)c1cccc2c1c([N+](=O)[O-])cc1[nH]c(=O)c(=O)[nH]c12 [NBQX, 1,2,3,4-tetrahydroxy-6-nitro-2,3-dioxo-benzo-[f]quinoxaline-7-sulfonamide, reference compound]",block of transient peak and sustained plateau currents,AMPA receptor [4],completely blocked
COc1ccc(C(=O)N2CCCC2=O)cc1 [aniracetam],effect on kainate-activated current,[5],failed to potentiate the kainate-activated current
same,effect on kainate responses at doses that decreased AMPA desensitization,[5],failed to affect kainate responses
same,improvement of water maze performance,"rats [6]; FIG. 8A, Aniracetam 500 mg/kg oral",improve water performance in rats
same,significance (P) of water maze performance vs control,"rats [6]; Aniracetam 500 mg/kg per oral gavage, at least 5 rats",< 0.05
same,effect on learning and memory (background),animals and humans,enhancing learning and memory (nootropic action) in animals
same,AMPA receptor desensitization / modulation (background),AMPA receptor [7],attenuating AMPA receptor spontaneous desensitization
same,potency and duration of action (background),AMPA receptor [7],low potency and short lasting action
same,AMPA receptor desensitization / modulation (background),AMPA receptor [7]; listed as Aniracetam,decreases AMPA receptor desensitization
"NS(=O)(=O)c1cc2c(cc1Cl)N=CNS2(=O)=O [chlorothiazide, reference compound]",antagonism of alprazolam amnesic effect,rats [1],inactive
"CC1=NS(=O)(=O)c2cc(Cl)ccc2N1 [diazoxide, reference compound]","potentiation of glutamate current, in words",[3]; 100 μM,inactive
same,potentiation of glutamate-elicited current,"[3]; 500 μM compound, mean±SE, N=4 cells",152±0.2%
same,"maximal efficacy reached, in words","[3]; 1 mM, maximal dose testable without vehicle effect",failed to reach maximal efficacy at 1 mM
same,"potentiation of glutamate current, dose dependence",[3]; up to 1 mM,dose-dependent potentiation
same,effect on kainate-activated current,[5],increased the current
same,effect on kainate responses at doses that decreased AMPA desensitization,[5],potently potentiated kainate responses
same,efficacy in increasing excitatory synaptic strength in CAl pyramidal neurons,[8],at least as efficacious as (+) IDRA 21
same,antagonism of alprazolam amnesic effect,rats [1],inactive; also recorded: unable to antagonize alprazolam-induced impairment of learning behavior
CNC1(c2ccccc2Cl)CCCCC1=O (stereo not shown) [ketamine],effect on learning and memory (background),animals and humans,"produce profound alterations in learning, disrupt memory consolidation and retrieval in animals and man"
c1ccc(C2(N3CCCCC3)CCCCC2)cc1 [phencyclidine],effect on learning and memory (background),animals and humans,"produce profound alterations in learning, disrupt memory consolidation and retrieval in animals and man"
